# Assay results as given in patent US9109041B2, “Analog compounds of analgesic peptides derived from the venom of crotalus durissus terrificus snakes, their uses, compositions, methods of preparation and purification” (priority 2004, dated 2015).
# Bridges are numbered along the chain shown (N, C = ends). Where no end group is shown, it is not given here. [ ]: non-standard residue; d: D form. pGlu = O=C1CC[C@@H](C(=O)O)N1
# Tested on: prostaglandin E2-induced hyperalgesia
# Assay: rat paw pressure test, prostaglandin E2-induced hyperalgesia
# Conditions: for pain threshold, FM (g) ± S.E.M: 3 h after PGE2 100 ng/paw i.pl.; for analgesic activity: synthetic peptides compared with natural ENPAK-k, similar conditions
# [1] = oral route, reversal of PGE2-induced hyperalgesia, CurveExpert 1.3
compound,measurement,setting,value
"CN1CC[C@]23c4c5ccc(O)c4O[C@H]2[C@@H](O)C=C[C@H]3[C@H]1C5 [Morphine, reference compound]","pain threshold, FM (g) ± S.E.M",morphine 0.004 μg/kg p.o.,69 ± 1.87 g
same,"pain threshold, IM (g) ± S.E.M.","morphine 0.004 μg/kg p.o., before PGE2",77 ± 1.22 g
same,"pain threshold, FM (g) ± S.E.M",morphine 0.2 μg/kg p.o.,70 ± 1.58 g
same,"pain threshold, IM (g) ± S.E.M.","morphine 0.2 μg/kg p.o., before PGE2",76 ± 1.87 g
same,"pain threshold, FM (g) ± S.E.M",morphine 1 μg/kg p.o.,85 ± 1.58 g
same,"pain threshold, IM (g) ± S.E.M.","morphine 1 μg/kg p.o., before PGE2",78 ± 1.22 g
same,"pain threshold, FM (g) ± S.E.M",morphine 5 μg/kg p.o.,109 ± 1.87 g
same,"pain threshold, IM (g) ± S.E.M.","morphine 5 μg/kg p.o., before PGE2",78 ± 1.22 g
same,50% effective dose,[1],0.05515 µg/kg
same,90% effective dose,[1],0.3267 µg/kg
SEQ ID NO: 3: one of 4 possible sequences pGlu-Phe-Ser-Pro-Glu-Asn-Cys-Lys/Gln-Gly-Glu-Ser-Lys/Gln-Pro-Cys; modified synthetic peptide (XFSPENCQGESKPC; Synthetically generated peptide),"pain threshold, FM (grams) ± S.E.M.","p.o., 2 ml of solution (peptide diluted in 11 ml of saline), 3 hours after PGE2 100 ng/paw i.pl.",110 ± 2.74 grams
same,"pain threshold, IM (grams) ± S.E.M.","p.o., 2 ml of solution (peptide diluted in 11 ml of saline), before PGE2",76 ± 1.00 grams
same,analgesic activity,,demonstrated analgesic activity
SEQ ID NO: 6: one of 4 possible sequences pGlu-Phe-Ser-Pro-Glu-Asn-Cys-Lys/Gln-Gly-Glu-Ser-Lys/Gln-Pro-Cys; synthetic peptide (XFSPENCKGESQPC; Synthetically generated peptide),analgesic activity,,inactivity
SEQ ID NO: 7: one of 4 possible sequences pGlu-Phe-Ser-Pro-Glu-Asn-Cys-Lys/Gln-Gly-Glu-Ser-Lys/Gln-Pro-Cys; synthetic peptide ([pGlu]FSPENCKGESKPC; disulfide 7-14),analgesic activity,,inactivity
